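Step 1: Grow cells in 96-well plates. Step 2: Expose to compound for 48 hours at 5 concentrations. Step 3: Interpolate endpoints linearly; if unreached, use highest concentration. TGI marks complete inhibition of growth.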
Legend:
Experiment in all cases: NCI tumour cell line growth inhibition, 48 h
UACC-62 melanoma = system: UACC-62 melanoma
HT29 colon = system: HT29 colon
BT-549 breast = system: BT-549 breast
T-47D breast = system: T-47D breast
COLO 205 colon = system: COLO 205 colon
SNB-75 CNS = system: SNB-75 CNS
RXF 393 renal = system: RXF 393 renal
OVCAR-4 ovarian = system: OVCAR-4 ovarian
SR leukemia = system: SR leukemia
K-562 leukemia = system: K-562 leukemia
NCI-H226 lung = system: NCI-H226 lung
OVCAR-3 ovarian = system: OVCAR-3 ovarian
ACHN renal = system: ACHN renal
MALME-3M melanoma = system: MALME-3M melanoma
NCI-H522 lung = system: NCI-H522 lung
SK-MEL-28 melanoma = system: SK-MEL-28 melanoma
SW-620 colon = system: SW-620 colon
OVCAR-5 ovarian = system: OVCAR-5 ovarian
MOLT-4 leukemia = system: MOLT-4 leukemia
UO-31 renal = system: UO-31 renal
MCF7 breast = system: MCF7 breast
OVCAR-8 ovarian = system: OVCAR-8 ovarian
HCT-15 colon = system: HCT-15 colon
HCT-116 colon = system: HCT-116 colon
NCI-H23 lung = system: NCI-H23 lung
SNB-19 CNS = system: SNB-19 CNS
LOX IMVI melanoma = system: LOX IMVI melanoma
PC-3 prostate = system: PC-3 prostate
HOP-62 NSCLC = system: HOP-62 NSCLC
SK-MEL-2 melanoma = system: SK-MEL-2 melanoma
A498 renal = system: A498 renal
HL-60(TB) leukemia = system: HL-60(TB) leukemia
HS 578T breast = system: HS 578T breast
TK-10 renal = system: TK-10 renal
MDA-MB-435 = system: MDA-MB-435
UACC-257 melanoma = system: UACC-257 melanoma
NCI-H460 lung = system: NCI-H460 lung
SF-268 CNS = system: SF-268 CNS
DU-145 prostate = system: DU-145 prostate
NCI/ADR-RES ovarian = system: NCI/ADR-RES ovarian
SK-MEL-5 melanoma = system: SK-MEL-5 melanoma
IGROV1 ovarian = system: IGROV1 ovarian
KM12 colon = system: KM12 colon
HCC-2998 colon = system: HCC-2998 colon
RPMI-8226 leukemia = system: RPMI-8226 leukemia
MDA-N = system: MDA-N
786-0 renal = system: 786-0 renal
EKVX NSCLC = system: EKVX NSCLC
U251 CNS = system: U251 CNS
SN12C renal = system: SN12C renal
CAKI-1 renal = system: CAKI-1 renal
SF-295 CNS = system: SF-295 CNS
MDA-MB-231 breast = system: MDA-MB-231 breast
SF-539 CNS = system: SF-539 CNS
M14 melanoma = system: M14 melanoma
A549 NSCLC = system: A549 NSCLC
CCRF-CEM leukemia = system: CCRF-CEM leukemia
SK-OV-3 ovarian = system: SK-OV-3 ovarian

CC(=O)OCC1OC(Nc2ccc3nc(C)n(-c4ccccc4)c(=O)c3c2)C(OC(C)=O)C(OC(C)=O)C1OC(C)=O (centres undefined)
TGI (UACC-62 melanoma): > 50 µM | TGI (HT29 colon): > 50 µM | TGI (BT-549 breast): > 50 µM | TGI (T-47D breast): > 50 µM | TGI (COLO 205 colon): > 50 µM | TGI (SNB-75 CNS): > 50 µM | TGI (RXF 393 renal): > 50 µM | TGI (OVCAR-4 ovarian): > 50 µM | TGI (SR leukemia): > 50 µM | TGI (K-562 leukemia): > 50 µM | TGI (NCI-H226 lung): > 50 µM | TGI (OVCAR-3 ovarian): > 50 µM | TGI (ACHN renal): > 50 µM | TGI (MALME-3M melanoma): > 50 µM | TGI (NCI-H522 lung): > 50 µM | TGI (SK-MEL-28 melanoma): > 50 µM | TGI (SW-620 colon): > 50 µM | TGI (OVCAR-5 ovarian): > 50 µM | TGI (MOLT-4 leukemia): > 50 µM | TGI (UO-31 renal): > 50 µM | TGI (MCF7 breast): > 50 µM | TGI (OVCAR-8 ovarian): > 50 µM | TGI (HCT-15 colon): > 50 µM | TGI (HCT-116 colon): > 50 µM | TGI (NCI-H23 lung): > 50 µM | TGI (SNB-19 CNS): > 50 µM | TGI (LOX IMVI melanoma): > 50 µM | TGI (PC-3 prostate): > 50 µM | TGI (HOP-62 NSCLC): > 50 µM | TGI (SK-MEL-2 melanoma): > 50 µM | TGI (A498 renal): > 50 µM | TGI (HL-60(TB) leukemia): > 50 µM | TGI (HS 578T breast): > 50 µM | TGI (TK-10 renal): > 50 µM | TGI (MDA-MB-435): > 50 µM | TGI (UACC-257 melanoma): > 50 µM | TGI (NCI-H460 lung): > 50 µM | TGI (SF-268 CNS): > 50 µM | TGI (DU-145 prostate): > 50 µM | TGI (NCI/ADR-RES ovarian): > 50 µM | TGI (SK-MEL-5 melanoma): > 50 µM | TGI (IGROV1 ovarian): > 50 µM | TGI (KM12 colon): > 50 µM | TGI (HCC-2998 colon): > 50 µM | TGI (RPMI-8226 leukemia): 20.4 µM | TGI (MDA-N): > 50 µM | TGI (786-0 renal): > 50 µM | TGI (EKVX NSCLC): > 50 µM | TGI (U251 CNS): > 50 µM | TGI (SN12C renal): > 50 µM | TGI (CAKI-1 renal): > 50 µM | TGI (SF-295 CNS): > 50 µM | TGI (MDA-MB-231 breast): > 50 µM

O=C1OC2C=CCC1C2 (centres undefined)
TGI (UACC-62 melanoma): > 100 µM | TGI (HT29 colon): > 100 µM | TGI (BT-549 breast): > 100 µM | TGI (T-47D breast): > 100 µM | TGI (COLO 205 colon): > 100 µM | TGI (SF-539 CNS): > 100 µM | TGI (SNB-75 CNS): > 100 µM | TGI (M14 melanoma): > 100 µM | TGI (SR leukemia): > 100 µM | TGI (K-562 leukemia): > 100 µM | TGI (NCI-H226 lung): > 100 µM | TGI (OVCAR-3 ovarian): > 100 µM | TGI (ACHN renal): > 100 µM | TGI (MALME-3M melanoma): > 100 µM | TGI (NCI-H522 lung): > 100 µM | TGI (SK-MEL-28 melanoma): > 100 µM | TGI (SW-620 colon): > 100 µM | TGI (OVCAR-5 ovarian): > 100 µM | TGI (MOLT-4 leukemia): > 100 µM | TGI (UO-31 renal): > 100 µM | TGI (MCF7 breast): > 100 µM | TGI (OVCAR-8 ovarian): > 100 µM | TGI (HCT-15 colon): > 100 µM | TGI (HCT-116 colon): > 100 µM | TGI (NCI-H23 lung): > 100 µM | TGI (SNB-19 CNS): > 100 µM | TGI (LOX IMVI melanoma): > 100 µM | TGI (PC-3 prostate): > 100 µM | TGI (HOP-62 NSCLC): > 100 µM | TGI (SK-MEL-2 melanoma): > 100 µM | TGI (A498 renal): > 100 µM | TGI (HL-60(TB) leukemia): > 100 µM | TGI (HS 578T breast): > 100 µM | TGI (A549 NSCLC): > 100 µM | TGI (TK-10 renal): > 100 µM | TGI (MDA-MB-435): > 100 µM | TGI (CCRF-CEM leukemia): > 100 µM | TGI (UACC-257 melanoma): > 100 µM | TGI (NCI-H460 lung): > 100 µM | TGI (SF-268 CNS): > 100 µM | TGI (DU-145 prostate): > 100 µM | TGI (NCI/ADR-RES ovarian): > 100 µM | TGI (SK-MEL-5 melanoma): > 100 µM | TGI (IGROV1 ovarian): > 100 µM | TGI (KM12 colon): > 100 µM | TGI (HCC-2998 colon): > 100 µM | TGI (RPMI-8226 leukemia): > 100 µM | TGI (MDA-N): > 100 µM | TGI (786-0 renal): > 100 µM | TGI (EKVX NSCLC): > 100 µM | TGI (U251 CNS): > 100 µM | TGI (SN12C renal): > 100 µM | TGI (CAKI-1 renal): > 100 µM | TGI (SF-295 CNS): > 100 µM | TGI (SK-OV-3 ovarian): > 100 µM | TGI (MDA-MB-231 breast): > 100 µM
